Structures can show the parent of a compound that is named as a salt. Where two headings read alike, the source gives them in different places. Values belong to the molecule of their own block, whether it stands above or below them.
How the values were obtained:
[1] = test system: primary forebrain neurons; settings: 48 h; for live:dead cell ratio in the presence of toxic concentrations of glutamate: 25 μM glutamate; for death among neurons compared to control: Aβ(1-42) 10 μM
primary neurons [2] = settings: for protection from peroxide (PO) induced mitochondrial fragmentation: 75 μM peroxide
[3] = test system: primary forebrain neurons; test: cells; settings: for EC50: Mus musculus, Neuron; for EC50 / Dendritic Mt CA / Neurite Area: 24 h; for Dendritic Mt CA / Neurite Area: rescreen, 12.5 μM, vs DMSO wells
Description: Primary forebrain cell culture and maintenance. Forebrains of P0 Mt or Mt/Ai14 pups without olfactory bulbs and meninges were collected and placed in ice cold Ca^2+ and Mg^2+ free HBSS supplemented with 2 μg/ml gentamicin, 25 mM D-glucose, 1 mM pyruvate and 20 mM HEPES. Brain tissue was digested with 0.6 mg/ml papain at 37° C. for 20 min. Forebrains were washed with plating media [Neurobasal (Gibco), 5% FBS, 4 mM GlutaMAX (Gibco), 2 μg/ml gentamicin]. The tissue was gently triturated, allowed to settle and the supernatant was filtered through a 40 μm mesh-sized cell strainer. Cells were centrifuged at 420×g for 4 min and resuspended in plating media. 15,000 cells per well were plated with 2×10^8 viral particles/ml onto black Greiner μClear (Cat #781946) or Ultra-Low Base Aurora with evaporation barrier (Cat #ABE201201B) 384-well plates (80 μl/well) pre-coated with poly-D-lysine for the primary screen and rescreen, respectively. Plating and media changes were performed using an automated Biomek FX^P liquid handling workstation. Four hr after plating, 75% of the plating media was replaced by feeding media [Neurobasal-A (Gibco), 4 mM GlutaMAX (Gibco), 2 μg/ml gentamicin, 2% B27 (Gibco)]. At DIV4, 50% of the media was exchanged with fresh feeding media supplemented with 16 μM 5-Fluoro-2′-deoxyuridine (FUdR) to prevent glial cell over-growth. At DIV8 and DIV12, additional 50% media changes were made without FUdR. Cells were maintained at 37° C. and 5% CO2; plates were topped with Breathe-Easy adhesive membranes (Greiner plates) to minimize evaporation.
Compounds and compound transfer.
Imaging. Images were captured using a GE Incell 6000 system (60× objective, 0.95 NA, 16-bit images) equipped with environmental control (37° C., 5% CO2). Mt-GFP (green channel) was imaged by confocal imaging (3 slices, Δz=0.7 μm, aperture=1.0 AU, λexc=488 nm, λem=515-535 nm). Cyto-tdTomato (red channel) and MitoTracker Orange (red channel) were imaged using confocal mode (3 slices, Δz=0.7 μm, aperture=1.0 AU, λexc=561 nm, λem=569-641 nm, MitoTracker Orange) or with widefield mode (Cyto-tdTomato). TMRM imaged for the co-localization experiments with Mt-GFP was imaged using the confocal mode (3 slices, […] aperture=1.0, λexc=488, λem=569-641 nm). For the live-dead assay, primary neurons were imaged with a 20× (widefield mode, NA 0.45) objective using λexc=561 nm and λem=569-641 nm for the propidium iodide stained dead cells (red channel), and λexc=488 nm and λem=515-535 nm for the fluorescein diacetate stained live cells (green channel). 10 fields were collected from each well, and 4 wells were imaged/condition in the live-dead assay. For all other experiments, 4 fields/well were imaged unless otherwise stated.
Automated data analysis pipeline. Most experiments utilized only Mt-GFP; some utilized both Mt-GFP and Cyto-tdTomato. The Z-projected images were preprocessed using a custom Fiji macro. For preprocessing of Mt-GFP images: background was subtracted (rolling ball, radius=3), images were median filtered (radius=1) and somatic mitochondria were removed. For removal of the somatic mitochondria, they were first segmented and then a somatic mitochondrial mask overlaid on the image.

[4] = test system: isolated forebrain mitochondria; test: ATP production of isolated mitochondria (luciferase-based kinetic assay); type: biochemical, mouse; settings: for ATP production kinetics, amplitude of single exponential fit: 12 μM, starting 20 min after addition, DMSO 22498±358; for ATP production of isolated mitochondria (direct effect): 12.5 μM, within the 45-min measurement period, vs DMSO
Description: Isolation of mitochondria. For the ATP synthesis experiments of FIG. 6, forebrains from P0 pups were dissected as described above. 2×10^7 cells were harvested for high-purity mitochondrial isolation using the Qiagen QProteome kit. The mitochondrial pellet was resuspended in 500 μl mitochondria storage buffer (provided by kit) and kept on ice until further use.
ATP production of isolated forebrain mitochondria of P0 pups was measured by ATP Determination Kit (Molecular Probes). […] The reactions were initiated by the addition of 1 mM ADP (deprived of ATP contamination by adding 3 U/ml hexokinase to 10 mM of ADP in 50 mM Tris-HCl, 20 mM MgCl2 and 22 mM glucose, incubating the solution at 37° C. for 1 hr and heat inactivating the hexokinase at 100° C. for 3 min). Luminescence was recorded every 15-30 sec for 1 hr at 580±40 nm.

primary neurons [5] = test: CellTiter-Glo luminescence-based ATP assay; type: cell-based, mouse; settings: for ATP: ATP orthogonal screen, 24 h; for EC50 / Emax: Mus musculus, Primary neuron, dose response; for EC50: 15 concentrations from 6 nM to 100 uM; for Emax: maximal percent increase relative to in-plate DMSO controls, read-out: ATP (Effect-size)
Method in brief: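 Primary neurons treated from DIV13 for 24 h with compound or DMSO. After part of the medium was removed, CellTiter-Glo reagent was added; plates were shaken 10 min at 200 rpm, kept 2 min in the dark at room temperature, and luminescence read as total ATP.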

primary neurons [6] = test: TMRM fluorescence assay of inner mitochondrial membrane potential (ΔΨm); settings: for Emax / EC50: Mus musculus, Primary neuron; for Emax: read-out: TMRM (Effect-size); for EC50: read-out: TMRM-EC50; for TMRM Primary: primary screen, 12.5 μM; for TMRM Primary / TMRM Rescreen: 24 h
Drosophila model for AD = test: Drosophila model for AD: neuronal mitochondrial morphology; type: in vivo; settings: cell bodies of neurons; 100 micromolar, 15 days-of-age
Description: To assay representative compounds in this example, we employed a Drosophila model for AD (X. Wang et al., Mol. Neurobiol. […] Flies expressing this toxic protein show: […] Drugs that show efficacy therefore: enlarge neuronal mitochondria (increased volume, increased surface area, increased length), reduce sphericity, and reduce the number of mitochondria compared to untreated Alzheimer's flies. The AD model flies were collected immediately after eclosion from the pupal case and transferred to food that was laced with drug at 100 micromolar concentration. The flies were aged to 15 days-of-age: this is when the mitochondrial pathology is very robust. We compared the morphology of mitochondria collected from these flies treated with drug and compared them to the mitochondria of flies that remained untreated.

[7] = read-out: Elongation (Dend Mt length) EC50
[8] = read-out: Health (Ax Mt Circularity) EC50
[9] = read-out: Mt Content (Dend Mt CA) EC50
[10] = read-out: Sprouting (Neurite Area) EC50
[11] = peroxide 75 μM, glutamate 25 μM

Molecule: O=C(/C=C/c1ccccc1)c1ccc(O)cc1 [4′-HYDROXYCHALCONE]
live:dead cell ratio in the presence of toxic concentrations of glutamate [1]: offered protection
protection from peroxide (PO) induced mitochondrial fragmentation (primary neurons [2]; 12.5 μM compound, 48 h): fully protected
EC50 [3, 7]: 2300 nM
EC50 [3, 8]: 5800 nM
EC50 [3, 9]: 4800 nM
EC50 [3, 10]: 900 nM
Dendritic Mt CA [3]: 5.11 robust Z-scores
Neurite Area [3]: 2.21 robust Z-scores
ATP production kinetics, amplitude of single exponential fit [4]: 6121±99
ATP production of isolated mitochondria (direct effect) [4]: decreased

Molecule: COc1ccccc1N1CCN(CC(O)COc2cccc3ccccc23)CC1 (stereo not shown) [NAFTOPIDIL]
protection from peroxide (PO) induced mitochondrial fragmentation (primary neurons [2]; 12.5 μM compound, 48 h): fully protected
ATP (primary neurons [5]): 3.62 Z-scores
EC50 (primary neurons [5]): 230 nM
Emax (primary neurons [5]): 15%
EC50 [3, 8]: 200 nM
EC50 [3, 9]: 100 nM
EC50 [3, 10]: 500 nM
Dendritic Mt CA [3]: 4.86 robust Z-scores
Neurite Area [3]: 2.41 robust Z-scores
Emax (primary neurons [6]): 18.8%
EC50 (primary neurons [6]): 2240 nM
TMRM Primary (primary neurons [6]): 3.64 Z-scores
TMRM Rescreen (primary neurons [6]): 9.07 Z-scores
ATP production kinetics, amplitude of single exponential fit [4]: 49917±838
ATP production of isolated mitochondria (direct effect) [4]: significantly increased

EC50 (primary neurons [6]): 130 nM
Molecule: O=c1[nH]c2ccccc2n1C1CCN(CCCC(c2ccc(F)cc2)c2ccc(F)cc2)CC1 [pimozide]
Surface area of mitochondria, p (treated vs untreated) (Drosophila model for AD): p = 0.017
ATP (primary neurons [5]): 6.60 Z-scores
EC50 (primary neurons [5]): 90 nM
Emax (primary neurons [5]): 20.4%
Emax (primary neurons [6]): 25.1%
TMRM Primary (primary neurons [6]): 2.65 Z-scores
TMRM Rescreen (primary neurons [6]): 3.74 Z-scores

Molecule: O=C(/C=C/c1ccccc1)c1ccc(O)cc1O [2′,4′-DIHYDROXYCHALCONE]
live:dead cell ratio in the presence of toxic concentrations of glutamate [1]: offered protection
EC50 [3, 8]: 6700 nM
EC50 [3, 10]: > 25000 nM
Dendritic Mt CA [3]: 3.39 robust Z-scores
Neurite Area [3]: 0.42 robust Z-scores
ATP production kinetics, amplitude of single exponential fit [4]: 9853±132
ATP production of isolated mitochondria (direct effect) [4]: decreased

Molecule: CCN(CCCc1ccccc1)CCCc1ccccc1 [ALVERINE CITRATE]
live:dead cell ratio in the presence of toxic concentrations of glutamate [1]: offered protection
protection from glutamate (GLUT) induced mitochondrial fragmentation (primary neurons [2]; 25 μM glutamate, 12.5 μM compound, 48 h): fully protected
protection from peroxide (PO) induced mitochondrial fragmentation (primary neurons [2]; 12.5 μM compound, 48 h): fully protected
ATP (primary neurons [5]): 4.56 Z-scores
ATP production in neurons (primary neurons [5]; after 24 hr of treatment): increased
EC50 [3, 7]: 2900 nM
EC50 [3, 8]: 300 nM
EC50 [3, 9]: 200 nM
EC50 [3, 10]: > 25000 nM
Dendritic Mt CA [3]: 5.09 robust Z-scores
Neurite Area [3]: −1.50 robust Z-scores
TMRM Primary (primary neurons [6]): 4.24 Z-scores
TMRM Rescreen (primary neurons [6]): 4.15 Z-scores
ATP production kinetics, amplitude of single exponential fit [4]: 28383±278
ATP production of isolated mitochondria (direct effect) [4]: significantly increased

EC50 (primary neurons [6]): 350 nM
Molecule: COc1ccccc1OCCNCC(O)COc1cccc2[nH]c3ccccc3c12 (stereo not shown) [carvedilol]
Surface area of mitochondria, p (treated vs untreated) (Drosophila model for AD): p = 0.078
ATP (primary neurons [5]): 5.32 Z-scores
EC50 (primary neurons [5]): 230 nM
Emax (primary neurons [5]): 15.9%
Emax (primary neurons [6]): 20.2%
TMRM Primary (primary neurons [6]): 4.11 Z-scores
TMRM Rescreen (primary neurons [6]): 5.71 Z-scores

Molecule: Aβ(1-40): less-toxic oligomeric amyloid-β peptide used as control
mitochondrial fragmentation caused by oligomeric peptide (primary neurons [2]): failed to cause mitochondrial fragmentation

Molecule: N[C@@H](CCC(=O)O)C(=O)[O-].[Na+] [glutamate, monosodium glutamate]
death among neurons compared to control [1, 11]: 42%
live cell ratio (live cells/live+dead cells) ([1]; peroxide 75 μM, glutamate 25 μM, control 0.57): 0.26

Molecule: Aβ(1-42): toxic amyloid-β peptide fragment, oligomeric, HFIP-treated peptide (BACHEM)
death among neurons compared to control [1, 11]: no detectable death

Molecule: N#CC(C#N)=NNc1ccc(OC(F)(F)F)cc1 [FCCP, carbonyl cyanide-p-trifluoromethoxyphenylhydrazone]
average area of axonal mitochondria [3]: 0.39 μm^2
average area of dendritic mitochondria [3]: 1.06 μm^2
average well axonal mitochondrial CA [3]: 629±83 μm^2
average well dendritic mitochondrial CA [3]: 123±44 μm^2
increase in axonal mitochondrial CA [3]: 225 μm^2
median axonal mitochondrial circularity [3]: 0.94±0.004
median dendritic mitochondrial length [3]: 2.77±0.07 μm
number of axonal mitochondria [3]: 51767
number of dendritic mitochondria [3]: 3713
sum of dendritic and axonal mitochondrial CA [3]: 754 μm^2
reduction in the average dendritic mitochondrial CA per well ([3]; FCCP treatment vs DMSO): ~90%
ATP production kinetics, amplitude of single exponential fit [4]: 17958±216

From patent US20230003721A1, “MITOTHERAPEUTICS FOR THE TREATMENT OF BRAIN DISORDERS” (The University of Florida Research Foundation, Inc., priority 2019, published 2023)
